As a reminder, the IC50 is the concentration that inhibits the measured activity by half. Read a high IC50 as weaker potency in that assay.

Here are results for two compounds from article PMC7011873, “LC-MS–MS and GC-MS analyses of biologically active extracts and fractions from Tunisian Juniperus phoenice leaves” (Pharmaceutical Biology, 2016).

Test [1] can be described thus: DPPH radical-scavenging effect assay. The settings on record: 30 min incubation at room temperature, absorbance at 517 nm. As for the experimental part:
DPPH (1,1-diphenyl-2-picrylhydrazyl) radical-scavenging effect was evaluated following the procedure described in a previous study (Feki et al. [2005]). Various concentrations of extracts and fractions (5 μL) dissolved in methanol were added to 5 mL of a 0.004% methanol solution of DPPH. After a 30 min incubation period at room temperature, the absorbance was read against a blank at 517 nm. Inhibition of free radical, DPPH, in percent (I%) was calculated as follows: I% = (Ablank-Asample/Ablank)×100 where Ablank is the absorbance of the control reaction (containing all reagents except the studied sample) and Asample is the absorbance of the studied sample. Extract concentration providing 50% inhibition (IC50) was calculated from the graph plotted of inhibition percentage against extract concentration. The synthetic antioxidant reagents BHT and vitamin E were used as positive control and all tests were carried out in triplicate.
(Loss of DPPH colour is used to gauge radical scavenging.)

Test [2] has as its target T1, porcine pancreatic α-amylase (PPA) (Sus scrofa, UniProt P00690).
T1 construct: purchased Sigma-Aldrich (St. Louis, MO)
T1 sequence (P00690 16-511): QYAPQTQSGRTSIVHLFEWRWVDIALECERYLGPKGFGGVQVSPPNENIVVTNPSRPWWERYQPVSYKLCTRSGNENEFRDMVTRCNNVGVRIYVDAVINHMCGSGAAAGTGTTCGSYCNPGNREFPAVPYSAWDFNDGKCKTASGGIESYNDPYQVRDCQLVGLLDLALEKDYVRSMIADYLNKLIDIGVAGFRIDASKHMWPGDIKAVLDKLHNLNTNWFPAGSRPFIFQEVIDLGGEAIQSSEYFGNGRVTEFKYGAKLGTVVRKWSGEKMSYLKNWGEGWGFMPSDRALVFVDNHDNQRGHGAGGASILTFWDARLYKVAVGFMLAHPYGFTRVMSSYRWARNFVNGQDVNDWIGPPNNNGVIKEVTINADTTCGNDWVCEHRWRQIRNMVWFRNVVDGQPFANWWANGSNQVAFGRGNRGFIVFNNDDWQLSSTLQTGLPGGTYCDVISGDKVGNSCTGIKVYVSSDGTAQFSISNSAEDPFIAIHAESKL
The test can be described thus: α-Amylase inhibition assay by CNPG3 method. In kind it is biochemical.
Protocol: The studied sample was dissolved in DMSO to give concentrations of 50, 100, and 200 mg/mL. The enzyme solution was prepared by mixing α-amylase in 100 mL of 40 mM phosphate buffer, pH 6.9. The assays were measured by mixing 80 mL of the studied sample, 20 mL of α-amylase solution, and 1 mL of 2-chloro-4-nitrophenol-α-D-maltotrioside (CNPG3). The mixture was incubated at 37 °C for 5 min. The absorbance was measured at 405 nm spectrophotometrically (Jenway 6405 UV/Visible, Staffordshire, UK). […] Percentage inhibition was calculated by the following expression and all tests were carried out in triplicate: PI = [(AbsorbanceControl-AbsorbanceTest)/AbsorbanceControl] × 100

Test [3] deals with α-glucosidase. Set-up: method as in Kim et al. ([2000]). The note with it: ref Kim et al. ([2000]); cited from earlier work.

Consider `O=c1cc(-c2ccc(O)c(-c3c(O)cc(O)c4c(=O)cc(-c5ccc(O)cc5)oc34)c2)oc2cc(O)cc(O)c12` [Amentoflavone], for which the “DPPH IC50” value in test [1] turned out to be 14.1 ± 0.4 µg/mL. The compound also gave an IC50 in test [2] of 37.9 µM. Further, in test [3], the “inhibitory activity against α-glucosidase” value was “relatively important inhibitory activity”.

Regarding `Cc1cc(C(C)(C)C)c(O)c(C(C)(C)C)c1` [BHT, butylate hydroxytoluene, reference compound], in test [1], the “DPPH IC50” value worked out at 18.1 ± 0.2 µg/mL.
